{"source": "paper PMC5513037", "about": "“Examining the influence of specificity ligands and ATP-competitive ligands on the overall effectiveness of bivalent kinase inhibitors” (Proteome Science, 2017)", "experiment_in_all_cases": "KAM-matrix competition in K562 lysate;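 on 0.001 uM KAM: median log10 fold change of treatment over DMSO control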;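 on 0.01 uM KAM: median log10 fold change of treatment over DMSO control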;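 on 0.1 uM KAM: median log10 fold change of treatment over DMSO control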;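 on 1 uM KAM: median log10 fold change of treatment over DMSO control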;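 on 10 uM KAM: median log10 fold change of treatment over DMSO control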", "format_in_all_cases": "binding", "key": {"[1]": {"target": "T1, MAP3K7 (Homo sapiens, UniProt O43318)", "T1 construct": "endogenous in cells; host or cells: K562 cells (lysate)", "T1 sequence (O43318 1-606)": "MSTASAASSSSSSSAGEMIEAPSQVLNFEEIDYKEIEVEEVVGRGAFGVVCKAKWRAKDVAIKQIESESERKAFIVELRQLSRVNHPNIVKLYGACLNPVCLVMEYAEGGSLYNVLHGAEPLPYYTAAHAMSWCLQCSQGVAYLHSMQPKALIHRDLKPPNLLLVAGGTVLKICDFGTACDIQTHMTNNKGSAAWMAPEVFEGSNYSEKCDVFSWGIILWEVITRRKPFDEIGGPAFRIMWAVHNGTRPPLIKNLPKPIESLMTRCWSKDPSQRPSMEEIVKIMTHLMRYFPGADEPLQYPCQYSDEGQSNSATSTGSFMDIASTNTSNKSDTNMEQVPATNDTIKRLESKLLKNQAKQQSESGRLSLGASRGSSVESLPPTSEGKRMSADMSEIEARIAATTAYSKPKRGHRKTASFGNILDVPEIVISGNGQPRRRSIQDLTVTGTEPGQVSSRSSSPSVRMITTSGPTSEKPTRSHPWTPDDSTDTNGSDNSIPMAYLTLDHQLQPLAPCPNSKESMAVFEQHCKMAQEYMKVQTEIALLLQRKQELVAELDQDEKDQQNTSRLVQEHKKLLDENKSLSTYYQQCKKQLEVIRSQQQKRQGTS", "method": "(§1) Supplement 12953_2017_125_MOESM1_ESM.zip/MS_Supp Info.xlsx, sheet \"KAM\" | column: 10 uM KAM; 1 uM KAM; 0.1 uM KAM; 0.01 uM KAM; 0.001 uM KAM; RB50"}, "[2]": {"target": "T2, STK4 (Homo sapiens, UniProt Q13043)", "T2 construct": "endogenous in cells; host or cells: K562", "T2 sequence (Q13043 1-487)": "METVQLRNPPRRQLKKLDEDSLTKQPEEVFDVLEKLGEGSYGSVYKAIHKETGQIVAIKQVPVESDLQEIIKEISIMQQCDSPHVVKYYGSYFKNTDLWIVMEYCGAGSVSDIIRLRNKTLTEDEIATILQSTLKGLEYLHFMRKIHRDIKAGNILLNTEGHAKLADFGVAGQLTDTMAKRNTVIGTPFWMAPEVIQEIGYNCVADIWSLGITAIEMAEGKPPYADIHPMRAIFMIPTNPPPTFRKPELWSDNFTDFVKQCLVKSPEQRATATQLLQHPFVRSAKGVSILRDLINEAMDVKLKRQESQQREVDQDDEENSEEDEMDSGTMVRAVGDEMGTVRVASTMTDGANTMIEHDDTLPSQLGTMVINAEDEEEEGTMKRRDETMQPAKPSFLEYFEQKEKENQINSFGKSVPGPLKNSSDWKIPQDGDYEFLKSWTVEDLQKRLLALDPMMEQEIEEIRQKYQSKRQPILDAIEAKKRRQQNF", "method": "as §1"}, "[3]": {"target": "T3, MARK2 (Homo sapiens, UniProt Q7KZI7)", "T3 construct": "endogenous in cells; host or cells: K562", "T3 sequence (Q7KZI7 whole entry)": "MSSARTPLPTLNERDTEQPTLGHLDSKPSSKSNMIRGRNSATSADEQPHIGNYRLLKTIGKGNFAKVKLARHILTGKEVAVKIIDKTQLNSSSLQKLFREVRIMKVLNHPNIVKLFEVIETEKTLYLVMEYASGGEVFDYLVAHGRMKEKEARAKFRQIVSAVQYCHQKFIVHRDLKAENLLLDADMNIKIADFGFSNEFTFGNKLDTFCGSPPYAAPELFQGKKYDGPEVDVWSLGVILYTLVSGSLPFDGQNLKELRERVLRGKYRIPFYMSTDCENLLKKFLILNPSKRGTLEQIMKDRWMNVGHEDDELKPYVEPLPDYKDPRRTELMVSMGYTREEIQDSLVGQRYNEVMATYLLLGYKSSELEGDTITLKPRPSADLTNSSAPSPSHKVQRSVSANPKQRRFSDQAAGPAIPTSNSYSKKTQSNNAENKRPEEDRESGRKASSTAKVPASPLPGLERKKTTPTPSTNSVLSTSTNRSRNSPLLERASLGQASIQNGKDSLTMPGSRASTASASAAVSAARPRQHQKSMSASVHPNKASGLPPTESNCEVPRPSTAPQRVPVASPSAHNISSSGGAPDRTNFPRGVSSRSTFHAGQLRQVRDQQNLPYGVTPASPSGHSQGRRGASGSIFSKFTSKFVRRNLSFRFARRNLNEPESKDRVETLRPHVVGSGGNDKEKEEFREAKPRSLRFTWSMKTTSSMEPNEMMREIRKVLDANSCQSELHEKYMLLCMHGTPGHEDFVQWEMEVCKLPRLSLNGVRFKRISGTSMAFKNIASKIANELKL", "method": "as §1"}, "[4]": {"target": "T4, STK26 (Homo sapiens, UniProt Q9P289)", "T4 construct": "endogenous in cells; host or cells: K562", "T4 sequence (Q9P289 whole entry)": "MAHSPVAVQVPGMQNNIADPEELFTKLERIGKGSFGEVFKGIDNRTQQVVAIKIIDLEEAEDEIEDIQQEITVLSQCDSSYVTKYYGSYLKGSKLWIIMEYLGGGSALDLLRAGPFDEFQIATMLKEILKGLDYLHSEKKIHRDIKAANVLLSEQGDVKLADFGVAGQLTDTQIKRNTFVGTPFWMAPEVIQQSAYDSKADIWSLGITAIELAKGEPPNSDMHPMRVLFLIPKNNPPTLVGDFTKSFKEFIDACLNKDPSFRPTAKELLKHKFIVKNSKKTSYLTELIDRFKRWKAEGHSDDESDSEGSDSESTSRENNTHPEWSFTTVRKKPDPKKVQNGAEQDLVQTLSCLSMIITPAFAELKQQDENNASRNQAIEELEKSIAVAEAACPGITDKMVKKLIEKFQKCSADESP", "method": "as §1"}, "[5]": {"target": "T5, CDK14 (Homo sapiens, UniProt O94921)", "T5 construct": "endogenous in cells; host or cells: K562", "T5 sequence (O94921 whole entry)": "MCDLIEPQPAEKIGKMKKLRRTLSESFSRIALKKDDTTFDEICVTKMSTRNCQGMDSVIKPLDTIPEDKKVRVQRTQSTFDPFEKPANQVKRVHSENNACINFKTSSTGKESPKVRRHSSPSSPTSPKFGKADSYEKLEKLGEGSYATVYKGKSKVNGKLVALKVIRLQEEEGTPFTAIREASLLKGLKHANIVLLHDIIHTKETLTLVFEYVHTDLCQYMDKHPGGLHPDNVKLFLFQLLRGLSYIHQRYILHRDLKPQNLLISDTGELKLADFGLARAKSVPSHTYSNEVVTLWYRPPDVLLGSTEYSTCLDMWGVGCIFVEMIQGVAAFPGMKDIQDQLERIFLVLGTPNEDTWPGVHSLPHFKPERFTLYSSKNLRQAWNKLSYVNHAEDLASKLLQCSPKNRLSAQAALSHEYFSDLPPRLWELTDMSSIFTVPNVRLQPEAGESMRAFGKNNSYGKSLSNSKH", "method": "as §1"}, "[6]": {"target": "T6, PDPK1 (Homo sapiens, UniProt O15530)", "T6 construct": "endogenous in cells; host or cells: K562", "T6 sequence (O15530 1-556)": "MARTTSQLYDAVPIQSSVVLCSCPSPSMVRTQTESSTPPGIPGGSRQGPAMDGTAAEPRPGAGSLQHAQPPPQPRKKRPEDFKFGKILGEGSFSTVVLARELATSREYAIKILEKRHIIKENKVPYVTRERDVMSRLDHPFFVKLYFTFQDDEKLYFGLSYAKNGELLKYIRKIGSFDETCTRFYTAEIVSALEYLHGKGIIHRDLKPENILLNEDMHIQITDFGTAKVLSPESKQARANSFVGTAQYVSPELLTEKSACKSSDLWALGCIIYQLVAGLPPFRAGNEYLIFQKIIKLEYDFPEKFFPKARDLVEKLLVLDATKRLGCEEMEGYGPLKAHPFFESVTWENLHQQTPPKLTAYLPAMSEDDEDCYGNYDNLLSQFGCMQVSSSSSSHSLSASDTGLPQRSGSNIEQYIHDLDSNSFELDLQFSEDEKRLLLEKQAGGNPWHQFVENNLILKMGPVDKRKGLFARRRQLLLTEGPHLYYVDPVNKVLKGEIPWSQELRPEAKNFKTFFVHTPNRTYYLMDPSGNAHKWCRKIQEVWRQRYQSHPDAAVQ", "method": "as §1"}, "[7]": {"target": "T7, TYK2 (Homo sapiens, UniProt P29597)", "T7 construct": "endogenous in cells; host or cells: K562", "T7 sequence (P29597 whole entry)": "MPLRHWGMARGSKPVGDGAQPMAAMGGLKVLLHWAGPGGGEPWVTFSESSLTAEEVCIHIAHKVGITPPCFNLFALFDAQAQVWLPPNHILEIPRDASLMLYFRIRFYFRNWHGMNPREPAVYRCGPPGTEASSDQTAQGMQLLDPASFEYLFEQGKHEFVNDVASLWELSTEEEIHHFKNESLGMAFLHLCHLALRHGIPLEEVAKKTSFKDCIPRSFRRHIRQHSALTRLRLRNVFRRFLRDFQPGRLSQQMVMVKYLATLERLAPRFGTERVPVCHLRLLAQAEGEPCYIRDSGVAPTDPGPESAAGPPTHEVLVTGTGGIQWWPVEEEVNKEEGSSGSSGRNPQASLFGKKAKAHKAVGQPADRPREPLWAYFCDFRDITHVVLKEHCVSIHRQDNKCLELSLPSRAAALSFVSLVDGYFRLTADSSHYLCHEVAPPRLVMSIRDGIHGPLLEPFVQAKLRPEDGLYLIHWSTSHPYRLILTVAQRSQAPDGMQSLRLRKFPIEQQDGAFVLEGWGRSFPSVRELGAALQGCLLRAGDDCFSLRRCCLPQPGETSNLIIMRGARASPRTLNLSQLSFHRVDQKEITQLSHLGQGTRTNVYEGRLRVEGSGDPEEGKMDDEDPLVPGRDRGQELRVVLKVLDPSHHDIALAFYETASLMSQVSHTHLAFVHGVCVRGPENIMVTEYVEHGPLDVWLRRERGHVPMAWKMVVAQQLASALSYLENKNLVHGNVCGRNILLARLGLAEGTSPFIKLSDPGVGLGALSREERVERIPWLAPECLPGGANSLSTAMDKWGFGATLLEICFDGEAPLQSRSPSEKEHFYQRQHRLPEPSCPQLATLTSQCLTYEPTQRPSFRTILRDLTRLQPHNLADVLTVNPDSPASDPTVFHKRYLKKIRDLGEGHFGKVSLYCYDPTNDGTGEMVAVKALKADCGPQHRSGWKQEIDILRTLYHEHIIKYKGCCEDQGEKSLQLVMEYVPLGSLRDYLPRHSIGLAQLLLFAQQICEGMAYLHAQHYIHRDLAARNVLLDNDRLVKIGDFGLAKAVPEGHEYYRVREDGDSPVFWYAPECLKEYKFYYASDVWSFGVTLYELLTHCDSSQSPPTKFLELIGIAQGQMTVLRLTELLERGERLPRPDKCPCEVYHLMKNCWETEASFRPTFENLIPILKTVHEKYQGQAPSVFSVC", "method": "as §1"}, "[8]": {"conditions": "read-out: RB50 (the source's name)"}}, "note": "pIC50: −log10 of the molar value.", "data": [{"smiles": "N#CCc1ccc(Nc2nc(NCCCN)cc(Nc3cc(C4CC4)[nH]n3)n2)cc1", "note": "[KAM]", "values": [{"measurement": "median Log10 fold change", "setting": "[1]; 0.001 uM KAM", "value": -0.02589}, {"measurement": "median Log10 fold change", "setting": "[1]; 0.01 uM KAM", "value": -0.01486}, {"measurement": "median Log10 fold change", "setting": "[1]; 0.1 uM KAM", "value": -0.1357}, {"measurement": "median Log10 fold change", "setting": "[1]; 1 uM KAM", "value": -0.3563}, {"measurement": "median Log10 fold change", "setting": "[1]; 10 uM KAM", "value": -0.511}, {"measurement": "pIC50", "setting": "[1]; [8]", "value": 6.10}, {"measurement": "median Log10 fold change", "setting": "[2]; 0.001 uM KAM", "value": -0.002208}, {"measurement": "median Log10 fold change", "setting": "[2]; 0.01 uM KAM", "value": -0.01313}, {"measurement": "median Log10 fold change", "setting": "[2]; 0.1 uM KAM", "value": -0.2747}, {"measurement": "median Log10 fold change", "setting": "[2]; 1 uM KAM", "value": -0.6557}, {"measurement": "median Log10 fold change", "setting": "[2]; 10 uM KAM", "value": -0.6912}, {"measurement": "pIC50", "setting": "[2]; [8]", "value": 6.84}, {"measurement": "median Log10 fold change", "setting": "[3]; 0.001 uM KAM", "value": -0.02617}, {"measurement": "median Log10 fold change", "setting": "[3]; 0.01 uM KAM", "value": -0.01928}, {"measurement": "median Log10 fold change", "setting": "[3]; 0.1 uM KAM", "value": -0.2168}, {"measurement": "median Log10 fold change", "setting": "[3]; 1 uM KAM", "value": -0.4361}, {"measurement": "median Log10 fold change", "setting": "[3]; 10 uM KAM", "value": -0.5469}, {"measurement": "pIC50", "setting": "[3]; [8]", "value": 6.47}, {"measurement": "median Log10 fold change", "setting": "[4]; 0.001 uM KAM", "value": -0.05178}, {"measurement": "median Log10 fold change", "setting": "[4]; 0.01 uM KAM", "value": -0.01072}, {"measurement": "median Log10 fold change", "setting": "[4]; 0.1 uM KAM", "value": -0.2654}, {"measurement": "median Log10 fold change", "setting": "[4]; 1 uM KAM", "value": -0.4176}, {"measurement": "median Log10 fold change", "setting": "[4]; 10 uM KAM", "value": -0.5788}, {"measurement": "pIC50", "setting": "[4]; [8]", "value": 6.60}, {"measurement": "median Log10 fold change", "setting": "[5]; 0.001 uM KAM", "value": 0.09538}, {"measurement": "median Log10 fold change", "setting": "[5]; 0.01 uM KAM", "value": 0.03255}, {"measurement": "median Log10 fold change", "setting": "[5]; 0.1 uM KAM", "value": -0.148}, {"measurement": "median Log10 fold change", "setting": "[5]; 1 uM KAM", "value": -0.2642}, {"measurement": "median Log10 fold change", "setting": "[5]; 10 uM KAM", "value": -0.4049}, {"measurement": "pIC50", "setting": "[5]; [8]", "value": 5.78}, {"measurement": "pIC50", "setting": "[6]; KAM 0.001-10 uM, read-out: RB50 (the source's name)", "value": "< 5.00"}, {"measurement": "0.001 uM KAM", "setting": "[6]; relative to 0 uM KAM = 0", "value": -0.001927}, {"measurement": "0.01 uM KAM", "setting": "[6]; relative to 0 uM KAM = 0", "value": -0.01199}, {"measurement": "0.1 uM KAM", "setting": "[6]; relative to 0 uM KAM = 0", "value": -0.03413}, {"measurement": "1 uM KAM", "setting": "[6]; relative to 0 uM KAM = 0", "value": -0.1736}, {"measurement": "10 uM KAM", "setting": "[6]; relative to 0 uM KAM = 0", "value": -0.2461}, {"measurement": "median Log10 fold change", "setting": "[7]; 0.001 uM KAM", "value": -0.01748}, {"measurement": "median Log10 fold change", "setting": "[7]; 0.01 uM KAM", "value": -0.01468}, {"measurement": "median Log10 fold change", "setting": "[7]; 0.1 uM KAM", "value": -0.1723}, {"measurement": "median Log10 fold change", "setting": "[7]; 1 uM KAM", "value": -0.4058}, {"measurement": "median Log10 fold change", "setting": "[7]; 10 uM KAM", "value": -0.4958}, {"measurement": "pIC50", "setting": "[7]; [8]", "value": 6.27}]}]}
